Results: US20030109699A1, “Amphiphilic quinolylpolyamines as transfer agents for biologically active macromolecules” (priority 1999, published 2003)

Columns and labels:
[1] = tested on: different tumor cell lines (HeLa, Hec1a, SKOV3, MCF-7, Hey, SKBR3); details: lipids mixed with DOPE; all tested cell lines; versus Transfectam, Lipofectamine and DC-Chol; GFP and beta-galactosidase reporter plasmids; FIGS. 5 and 6
Source text: In general: The cell lines used HeLa, Hec1a, SKOV3, MCF-7, Hey, SKBR3, T47D, 293 were cultivated according to standard ATCC conditions. Commercial transfection reagents Transfectam®, Lipofectamine™ und Superfect were used according to the manufacturer's instructions. DC-Chol was synthesized as described previously [L. Huang et al. Biochem. Biophys. Res. Commun. 179(1) (1991) 280-285] and was formulated with DOPE for the transfection experiments.
The day before the transfection 40-50000 cells were seeded per well in a 24-well cell culture plate (appr. 70% confluence). For the preparation of the complexes 3 μl (for SKBR3, MCF-7, Hey) respectively 6 μl (for HeLa, Hec1a, SKOV3) of the aqueous lipid reagent (30 mol % lipid #2 respectively #7 respectively #9; 70 mol % DOPE) were added to a solution of each 2 μg of the plasmid-DNA (pEGFP-N1; Clontech Laboratories, Inc; Katalog-Nr. 6085-1) in 300 μl of fcs-free medium and were incubated at room temperature for 30 min. Shortly before the transfection the cell culture medium was replaced with 700 μl fresh medium (14.3% fcs). After addition of the lipid-DNA complexes and incubation of the cells for 48 hours the percentage of GFP expressing fluorescent cells was determined by FACS-analysis. For this the cells were washed with PBS and were separated by trypsination and subsequent centrifugation. The thus obtained cell pellet was resuspended in 500 μl PBS and the percentage of fluorescent cells was determined by FACS-analysis using a FACScan device (Becton Dickinson).

breast tumor cells MCF7 = details: FIG. 9; for transfection efficiency with pEGFP-N1-plasmid compared with Transfectam: mixtures with 70 mol % DOPE in ethanolic solutions, MCF7; for percentage of transfected cells after pre-complexing of the DNA with protamine sulfate: mixtures with 70 mol % DOPE, ethanolic, DNA pre-complexed with protamine sulfate versus not
Method: The day before the transfection 40-50000 cells were seeded per well in a 24-well cell culture plate (appr. 70% confluence). For the preparation of the complexes 4 μl of the ethanolic lipid reagent (30 mol % lipid #2 respectively #7; 70 mol % DOPE) were added to a solution of each 2 μg of the plasmid-DNA (pEGFP-N1; Clontech Laboratories, Inc; catalog-nr. 6085-1) in 300 μl fcs-free medium and were incubated at room temperature for 30 min. For the transfection in the presence of protamine sulfate 2 μg plasmid-DNA was pre-complexed with 2 μg protamine sulfate in 300 μl serum free medium for 10 min whereupon 4 μl of the lipid reagent were added. Shortly before the transfection the cell culture medium was replaced with 700 μl fresh medium (14.3% fcs). After addition of the lipid-DNA complexes and incubation of the cells for 48 hours the percentage of GFP expressing fluorescent cells was determined by FACS-analysis as described above.

eucaryotic cells = details: 10-100 μM chloroquine added to the cell culture medium; cited from earlier work

CCN(CC)CCN(CCNc1ccnc2cc(Cl)ccc12)C(=O)O[C@H]1CC[C@@]2(C)C(=CC[C@H]3[C@@H]4CC[C@H]([C@H](C)CCCC(C)C)[C@@]4(C)CC[C@@H]32)C1.Cl [#2, 7-chloro-4-[N^1-(N^4-carboxycholesteryl)-(N^7-diethyl)-1,4,7-triaza-heptyl]-quinoline Hydrochloride]
transfection efficiency compared with known lipid formulations [1]: higher efficiency
transfection efficiency with pEGFP-N1-plasmid compared with Transfectam (breast tumor cells MCF7): significantly more efficient
percentage of transfected cells after pre-complexing of the DNA with protamine sulfate (breast tumor cells MCF7): significant increase

CC(C)CCC[C@@H](C)[C@H]1CC[C@H]2[C@@H]3CC=C4C[C@@H](OC(=O)N(CCCNc5ccnc6cc(Cl)ccc56)CCN(C)C)CC[C@]4(C)[C@H]3CC[C@]12C.Cl [#7, 7-chloro-4-[N^1-(N^5-carboxycholesteryl)-(N^8-dimethyl)-1,5,8-triaza-octyl]-quinoline Hydrochloride]
transfection efficiency compared with known lipid formulations [1]: higher efficiency
transfection efficiency with pEGFP-N1-plasmid compared with Transfectam (breast tumor cells MCF7): significantly more efficient
percentage of transfected cells after pre-complexing of the DNA with protamine sulfate (breast tumor cells MCF7): significant increase

CCCCCCCC/C=C\CCCCCCCC(=O)OC[C@@H](CN(CCCNc1ccnc2cc(Cl)ccc12)CCN(C)C)OC(=O)CCCCCCC/C=C\CCCCCCCC [#9, 7-chloro-4-[N^1-(N^5-(2(R),3-dioleoyloxy)propyl)-(N^8-dimethyl)-1,5,8-triaza-octyl]-quinoline]
transfection efficiency compared with known lipid formulations [1]: higher efficiency

CCN(CC)CCCC(C)Nc1ccnc2cc(Cl)ccc12 (centres unmarked) [chloroquine]
effect on the efficiency of the cationic amphiphiles (eucaryotic cells): significantly increases the efficiency
